Tests used:
[1] = molecular target: T1, RAR β (Homo sapiens, UniProt P10826); test: RAR β Kd; format: binding; conditions: last item of cell EC50/(EFFICACY)/Kd
T1 sequence (P10826 1-455): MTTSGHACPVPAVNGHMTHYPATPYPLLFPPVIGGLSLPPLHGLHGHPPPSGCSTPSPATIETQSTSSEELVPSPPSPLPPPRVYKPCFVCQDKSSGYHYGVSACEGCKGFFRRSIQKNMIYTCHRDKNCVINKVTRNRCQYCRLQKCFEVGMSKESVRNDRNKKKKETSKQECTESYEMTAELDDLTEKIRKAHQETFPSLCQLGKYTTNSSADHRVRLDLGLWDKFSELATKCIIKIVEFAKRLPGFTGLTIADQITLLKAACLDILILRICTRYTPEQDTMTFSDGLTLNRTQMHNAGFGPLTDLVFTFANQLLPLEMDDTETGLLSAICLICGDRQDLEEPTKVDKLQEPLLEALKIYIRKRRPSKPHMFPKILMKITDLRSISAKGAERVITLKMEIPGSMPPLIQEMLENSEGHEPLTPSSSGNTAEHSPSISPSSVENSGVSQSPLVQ

[2] = molecular target: T2, RAR γ (Homo sapiens, UniProt P13631); test: RAR γ Kd; format: binding; conditions: last item of cell EC50/(EFFICACY)/Kd
T2 sequence (P13631 1-454): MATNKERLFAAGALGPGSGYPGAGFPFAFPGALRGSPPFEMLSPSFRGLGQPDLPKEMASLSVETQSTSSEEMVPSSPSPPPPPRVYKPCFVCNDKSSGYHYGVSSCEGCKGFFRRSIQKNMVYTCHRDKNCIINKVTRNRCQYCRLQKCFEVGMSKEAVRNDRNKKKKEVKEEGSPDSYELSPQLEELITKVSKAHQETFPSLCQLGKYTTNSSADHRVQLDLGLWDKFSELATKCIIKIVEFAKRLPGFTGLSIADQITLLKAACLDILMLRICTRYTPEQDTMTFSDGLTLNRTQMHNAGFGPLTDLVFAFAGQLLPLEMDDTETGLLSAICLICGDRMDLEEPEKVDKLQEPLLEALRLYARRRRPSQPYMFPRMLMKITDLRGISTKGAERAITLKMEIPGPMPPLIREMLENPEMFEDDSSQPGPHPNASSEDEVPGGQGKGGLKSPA

[3] = molecular target: T3, CYP26B (P450RAI-2) (Homo sapiens, UniProt Q9NR63); test: Cell-based inhibition of RA metabolism in CYP26B stably transfected HeLa cells; conditions: stably transfected HeLa cells, [3H]-RA, 3 hours at 37° C.; read-out: P450RAI-2 Whole cell IC50
T3 construct: expressed in transfected cells; host or cells: HeLa
T3 sequence (Q9NR63 1-512): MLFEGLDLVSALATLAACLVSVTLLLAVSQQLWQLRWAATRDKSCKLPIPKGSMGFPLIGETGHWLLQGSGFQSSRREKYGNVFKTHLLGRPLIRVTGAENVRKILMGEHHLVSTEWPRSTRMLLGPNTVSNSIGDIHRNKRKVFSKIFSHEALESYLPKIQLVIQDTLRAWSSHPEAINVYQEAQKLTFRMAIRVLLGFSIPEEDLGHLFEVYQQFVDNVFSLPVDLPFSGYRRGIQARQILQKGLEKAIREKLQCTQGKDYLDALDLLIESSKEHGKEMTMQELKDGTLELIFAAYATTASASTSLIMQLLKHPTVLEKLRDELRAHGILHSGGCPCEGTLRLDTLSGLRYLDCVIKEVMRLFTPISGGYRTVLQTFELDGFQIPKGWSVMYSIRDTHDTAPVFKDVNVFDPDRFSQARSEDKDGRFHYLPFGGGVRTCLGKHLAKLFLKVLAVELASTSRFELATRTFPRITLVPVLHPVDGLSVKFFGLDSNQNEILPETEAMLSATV
Procedure: (§1) In brief, CYP26A or CYP26B can be stably transfected into HeLa cells. Exponentially growing cells are harvested by incubating in trypsin. Cells are then washed and plated in a 48-well plate at 5×10^5 cells in 0.2 ml MEM medium containing 10% FBS and 0.05 μCi [^3H]-RA in the presence or absence of increasing concentrations of the test compounds. The compounds are diluted in 100% DMSO and then added in triplicate wells at either 10, 1 or 0.1 μM final concentration. As a positive control for RA metabolism inhibition, cells are also incubated with ketoconazole at 100, 10 and 1 μM. Cells are incubated for 3 hours at 37 degrees C. The retinoids are then extracted using the procedure of Bligh et al., Canadian Journal of Biochemistry 37: 911-917 (1959), modified by using methylenechloride instead of chloroform. This publication by Bligh et al., is specifically incorporated herein by reference. The water soluble radioactivity is quantified using a β scintillation counter, and IC50 values are determined.
(§2) CYP26A and CYP26B stably transfected HeLa cells were maintained in 100 mm tissue culture dishes in MEM medium containing 10% FBS and 100 μg/ml hygromycin.
(§3) Exponentially growing cells were harvested by incubating in trypsin. Cells were then washed with 1×PBS and plated in a 48-well plate at 5×10^5 cells in 0.2 ml MEM medium containing 10% FBS and 0.05 μCi [^3H]-RA in the presence or absence of increasing concentrations of the test compounds. The compounds were diluted in 100% DMSO and then added to triplicate wells at final concentrations of 10, 1 or 0.1 μM. As a positive control for RA metabolism inhibition, cells were also incubated with ketoconazole at 100, 10 and 1 μM. Cells were incubated for 3 hours at 37° C. The retinoids were then extracted using a modified Bligh and Dyer procedure (Bligh and Dyer, supra (1959)), in which methylene-chloride, as opposed to chloroform, was used, and the aqueous soluble radioactivity quantified using a β-scintillation counter. ID50 values represent the concentration of inhibitor required to inhibit RA metabolism by 50 percent and were derived manually from log-transformed data.

[4] = molecular target: T4, RAR α (Homo sapiens, UniProt P10276); test: RAR α Kd; format: binding; conditions: last item of cell EC50/(EFFICACY)/Kd
T4 sequence (P10276 1-462): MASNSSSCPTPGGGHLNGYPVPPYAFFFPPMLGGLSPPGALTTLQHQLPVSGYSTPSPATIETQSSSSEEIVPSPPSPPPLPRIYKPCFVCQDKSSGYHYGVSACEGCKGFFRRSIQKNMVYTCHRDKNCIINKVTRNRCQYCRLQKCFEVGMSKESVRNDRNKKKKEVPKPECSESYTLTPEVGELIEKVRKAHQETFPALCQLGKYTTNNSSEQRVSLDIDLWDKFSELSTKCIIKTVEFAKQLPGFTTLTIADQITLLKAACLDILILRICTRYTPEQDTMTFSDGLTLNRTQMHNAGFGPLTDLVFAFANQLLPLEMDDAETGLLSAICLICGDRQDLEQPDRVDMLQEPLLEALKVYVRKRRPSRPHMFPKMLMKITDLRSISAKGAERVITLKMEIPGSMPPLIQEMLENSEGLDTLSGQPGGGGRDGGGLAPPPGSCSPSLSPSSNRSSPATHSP

[5] = molecular target: T5, CYP26A (P450RAI-1) (Homo sapiens, UniProt O43174); test: Cell-based inhibition of RA metabolism in CYP26A stably transfected HeLa cells; conditions: stably transfected HeLa cells, [3H]-RA, 3 hours at 37° C.; read-out: P450RAI-1 Whole cell IC50
T5 construct: expressed in transfected cells; host or cells: HeLa
T5 sequence (O43174 1-497): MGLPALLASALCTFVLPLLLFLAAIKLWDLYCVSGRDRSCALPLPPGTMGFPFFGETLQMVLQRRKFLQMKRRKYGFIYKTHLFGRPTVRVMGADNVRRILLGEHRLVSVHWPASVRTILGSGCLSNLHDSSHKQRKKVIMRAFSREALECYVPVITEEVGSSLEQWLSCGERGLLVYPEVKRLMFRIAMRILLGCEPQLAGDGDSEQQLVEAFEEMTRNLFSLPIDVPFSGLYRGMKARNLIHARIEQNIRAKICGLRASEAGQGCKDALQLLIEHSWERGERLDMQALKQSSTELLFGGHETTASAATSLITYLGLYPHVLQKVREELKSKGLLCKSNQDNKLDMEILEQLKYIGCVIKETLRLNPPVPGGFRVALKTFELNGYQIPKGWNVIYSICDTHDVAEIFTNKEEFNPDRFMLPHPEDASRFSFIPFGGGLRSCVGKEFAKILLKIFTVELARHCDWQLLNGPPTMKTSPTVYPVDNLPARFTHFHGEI
Procedure: as §1, §2, §3

Structure (SMILES) | Kd [1] | Kd [2] | IC50 [3] | Kd [4] | IC50 [5]
CC1(C)CC(C)(C)c2cc(C#Cc3ccc(C(C)(C)C(=O)O)cc3)cc(O)c2O1 [Compound 12, 2-[4-(8-Hydroxy-2,2,4,4-tetramethyl-chroman-6-ylethynyl)-phenyl]-2-methyl-propionic acid] | > 10 µM | > 10 µM | > 10 µM | > 10 µM | 0.16 µM
CN(C1CC1)C1CCC(C)(C)c2cc(C#Cc3ccc(C(C)(C)C(=O)O)cc3)cc(C3CC3)c21 (stereo not drawn) [Compound 50, 2-{4-[4-Cyclopropyl-5-(cyclopropyl-methyl-amino)-8,8-dimethyl-5,6,7,8-tetrahydro-naphthalen-2-ylethynyl]-phenyl}-2-methyl-propionic acid] | > 10 µM | > 10 µM | > 10 µM | > 10 µM | 0.1 µM
CC(C(=O)O)c1ccc(C#Cc2cc(C3CC3)c3c(c2)C(C)(C)CC2(CC2)O3)cc1 (stereo not drawn) [Compound 1, 2-{4-[(8-Cyclopropyl-3,4-dihydro-4,4-dimethylspiro[2H-1-benzopyran-2,1′-cyclopropane]-6-yl)ethynyl]-phenyl}-propionic acid] | 3.02 µM | 3.49 µM | 8 µM | 2.09 µM | 0.009 µM
CC1(C)CC2(CC2)Oc2c(C3CC3)cc(C#Cc3ccc(C(C)(C)C(=O)O)cc3)cc21 [Compound 2, 2-{4-[(8-Cyclopropyl-3,4-dihydro-4,4-dimethylspiro[2H-1-benzopyran-2,1′-cyclopropane]-6-yl)ethynyl]-phenyl}-2-methyl-propionic acid] | 3.44 µM | 5.58 µM | > 10 µM | 0.558 µM | 0.03 µM
CCc1cc(C#Cc2ccc(C(C)(C)C(=O)O)cc2)cc2c1C(N(C)C1CC1)CCC2(C)C (stereo not drawn) [Compound 54, 2-{4-[5-(Cyclopropyl-methyl-amino)-4-ethyl-8,8-dimethyl-5,6,7,8-tetrahydro-naphthalen-2-ylethynyl]-phenyl}-2-methyl-propionic acid] | 5.09 µM | > 10 µM | > 10 µM | 1.81 µM | 0.2 µM
CC(C(=O)O)c1ccc(C#Cc2cc(O)c3c(c2)C(C)(C)CC(C)(C)O3)cc1 (stereo not drawn) [Compound 11, 2-[4-(8-Hydroxy-2,2,4,4-tetramethyl-chroman-6-ylethynyl)-phenyl]-propionic acid] | > 10 µM | > 10 µM | 3 µM | > 10 µM | 0.07 µM
C/C(=C/C(=O)O)c1ccc(C#Cc2cccc(CN(C)C3CC3)c2)cc1 [Compound 32, 3-(4-{3-[(Cyclopropyl-methyl-amino)-methyl]-phenylethynyl}-phenyl)-but-2-enoic acid] | > 10 µM | > 10 µM | > 10 µM | > 10 µM | 0.44 µM
COc1cc(C#Cc2ccc(C(C)(C)C(=O)O)cc2)cc2c1C(N(C)C1CC1)CCC2(C)C (stereo not drawn) [Compound 28, 2-{4-[5-(Cyclopropyl-methyl-amino)-4-methoxy-8,8-dimethyl-5,6,7,8-tetrahydro-naphthalen-2-ylethynyl]-phenyl}-2-methyl-propionic acid] | > 10 µM | 4.2 µM | > 10 µM | > 10 µM | 0.25 µM
CN(Cc1cc(C#Cc2ccc(C(C)(C)C(=O)O)cc2)cc2c1OC(C)(C)CC2(C)C)C1CC1 [Compound 9, 2-(4-{8-[(Cyclopropyl-methyl-amino)-methyl]-2,2,4,4-tetramethyl-chroman-6-ylethynyl}-phenyl)-2-methyl-propionic acid] | > 10 µM | > 10 µM | > 10 µM | > 10 µM | 0.12 µM
CC(C)OC(=O)c1cccc(C#Cc2ccc(CC(=O)O)c(F)c2)c1 [Compound 44, 3-(4-Carboxymethyl-3-fluoro-phenylethynyl)-benzoic acid isopropyl ester] | 8.17 µM | > 10 µM | 7.5 µM | > 10 µM | 0.7 µM
COc1cc(C#Cc2ccc(CC(=O)O)cc2)cc2c1C(N(C)C1CC1)CCC2(C)C (stereo not drawn) [Compound 25, {4-[5-(Cyclopropyl-methyl-amino)-4-methoxy-8,8-dimethyl-5,6,7,8-tetrahydro-naphthalen-2-ylethynyl]-phenyl}-acetic acid] | > 10 µM | 0.317 µM | > 10 µM | > 10 µM | 0.1 µM
CC(C)Oc1cc(C#Cc2ccc(CC(=O)O)cc2)cc2c1OC(C)(C)CC2(C)C [Compound 13, [4-(8-Isopropoxy-2,2,4,4-tetramethyl-chroman-6-ylethynyl)-phenyl]-acetic acid] | > 10 µM | > 10 µM | 8 µM | 0.397 µM | 0.06 µM

— patent US7468391B2, “Methods for treating retinoid responsive disorders using selective inhibitors of CYP26A and CYP26B” (Allergan, Inc., priority 2003, dated 2008)
